Like-named read-outs stand apart in the source and are kept apart here.
Assays:
human NMT-1 = human NMT-1 (Homo sapiens (Human), UniProt P30419); assay: NMT enzyme inhibition scintillation proximity assay, human NMT-1; assay type: biochemical
[1] = target: T. brucei N-myristoyl transferase (Trypanosoma brucei brucei (strain 927/4 GUTat10.1), UniProt Q388H8); assay: biochemical; assay type: biochemical
[2] = system: Trypanosome (T. brucei brucei); assay: In-vitro antitrypanosomal efficacy assay (cell growth, resazurin); assay type: cell-based
Protocol: To column 12, 200 μl media was added to provide a no cells control. Plates were then incubated at 37° C. in an atmosphere of 5% CO2 for 69 hours, before the addition of 20 μl of 500 μM rezasurin solution, and a further incubation period of 4 hours. […] Concentration effect curves were fitted using non-linear regression using XLFit 4.2 and EC50 values determined.

[3] = value with no enzyme tag in the cell, taken as T. brucei NMT, read-out: IC50 (μM) NMT Enzyme
[4] = T. brucei NMT, value without parentheses, read-out: IC50 (μM) NMT Enzyme (T. brucei NMT)
[5] = T. brucei brucei, blood stream form, variant 221
[6] = Human NMT-1, value in parentheses, read-out: IC50 (μM) NMT Enzyme (HuNMT-1)

human NMT-1, sequence (P30419 whole entry): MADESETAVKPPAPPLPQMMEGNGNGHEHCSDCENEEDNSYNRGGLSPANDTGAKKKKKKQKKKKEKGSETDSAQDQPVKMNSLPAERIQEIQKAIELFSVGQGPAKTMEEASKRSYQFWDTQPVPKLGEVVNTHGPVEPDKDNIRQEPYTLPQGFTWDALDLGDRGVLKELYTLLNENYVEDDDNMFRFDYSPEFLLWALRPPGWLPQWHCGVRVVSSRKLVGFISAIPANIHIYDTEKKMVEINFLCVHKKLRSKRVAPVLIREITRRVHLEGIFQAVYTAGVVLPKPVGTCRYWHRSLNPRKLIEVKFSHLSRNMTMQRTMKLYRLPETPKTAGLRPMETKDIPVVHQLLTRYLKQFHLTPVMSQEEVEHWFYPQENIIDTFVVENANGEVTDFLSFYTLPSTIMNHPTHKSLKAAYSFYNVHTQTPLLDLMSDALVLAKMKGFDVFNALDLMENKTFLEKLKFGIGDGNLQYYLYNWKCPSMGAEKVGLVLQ
T. brucei N-myristoyl transferase, sequence (Q388H8 1-446): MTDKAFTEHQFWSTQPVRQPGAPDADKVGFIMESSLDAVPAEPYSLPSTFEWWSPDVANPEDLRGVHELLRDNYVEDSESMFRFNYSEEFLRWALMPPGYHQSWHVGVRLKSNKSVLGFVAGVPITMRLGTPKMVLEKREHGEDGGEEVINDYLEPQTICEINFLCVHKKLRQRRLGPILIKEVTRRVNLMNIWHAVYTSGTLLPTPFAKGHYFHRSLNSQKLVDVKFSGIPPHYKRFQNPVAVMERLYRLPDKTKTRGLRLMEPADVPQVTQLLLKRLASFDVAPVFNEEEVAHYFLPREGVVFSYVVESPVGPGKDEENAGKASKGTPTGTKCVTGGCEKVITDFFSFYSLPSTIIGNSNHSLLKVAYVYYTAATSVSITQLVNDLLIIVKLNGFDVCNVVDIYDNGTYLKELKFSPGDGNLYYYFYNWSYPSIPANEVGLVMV

| SMILES | IC50 (human NMT-1; HuNMT-1) [µM] | IC50 [1, 3] [µM] | ED50 (μM) T. brucei ([2]; T. brucei cell growth) [µM] | IC50 [1, 4] [µM] | ED50 (μM) T. brucei [2, 5] [µM] | IC50 (human NMT-1; [6]) [µM] |
| --- | --- | --- | --- | --- | --- | --- |
| Cc1nn(C)cc1N[S+](=O)([O-])c1ccc(Br)cc1 [DDD88320] | > 100 | 44.1 | >10 | – | – | – |
| Cn1cc(N[S+](=O)([O-])c2ccc(Br)cc2)cn1 [DDD88321] | > 100 | > 100 | >10 | – | – | – |
| Cc1ccncc1N[S+](=O)([O-])c1c(Cl)cc(-c2ccnc(N3CCNCC3)c2)cc1Cl [DDD88322] | 1.5 | 0.182 | 1.93 | – | – | – |
| Cc1nn(C)cc1N[S+](=O)([O-])c1c(Cl)cc(Br)cc1Cl [DDD88324] | 3.36 | 75.4 | >10 | – | – | – |
| Cn1cc(N[S+](=O)([O-])c2c(Cl)cc(Br)cc2Cl)cn1 [DDD88325] | > 100 | > 100 | >10 | – | – | – |
| Cc1c(N[S+](=O)([O-])c2ccc(Br)cc2)cnn1C [DDD88326] | > 100 | > 100 | >10 | – | – | – |
| Cc1nn(C)c(C)c1N[S+](=O)([O-])c1ccc2nc(NC3CCNCC3)ccc2c1 [DDD88523] | 6.3 | 0.61 | >1 | – | – | – |
| CCCN(CCC)Cc1cccc(-c2cc(Cl)c([S+](=O)([O-])N(C)c3c(C)nn(C)c3C)c(Cl)c2)c1 [DDD88636] | 3.7 | 0.92 | 1.89 | – | – | – |
| Cc1nn(C)c(C)c1N[S+](=O)([O-])c1cccc(CCCN2CCN(C)CC2)c1 [DDD88640] | > 1 | > 1 | 18.7 | – | – | – |
| Cc1nn(C)c(C)c1N(C)[S+](=O)([O-])c1c(Cl)cc(-c2cccc(CNC3CCCCC3)c2)cc1Cl [DDD88642] | 4.48 | 0.39 | 0.89 | – | – | – |
| Cc1nn(C)c(C)c1N[S+](=O)([O-])c1ccc(CCCN2CCN(C)CC2)cc1Cl [DDD90058] | – | 0.027 | 0.20 | – | – | – |
| Cc1nn(C)c(C)c1N[S+](=O)([O-])c1cc(F)c(CCCN2CCN(C)CC2)cc1F [DDD90059] | – | 0.054 | 0.48 | – | – | – |
| Cc1c(N[S+](=O)([O-])c2c(Cl)cc(CCCN3CCN(C)CC3)cc2Cl)c(CC(C)C)nn1C [DDD90060] | – | 0.006 | 0.02 | – | – | – |
| Cc1nn(C)c(C)c1N[S+](=O)([O-])c1ccc(-c2cccc(CCN(C)C)c2)cc1 [DDD90106] | – | 0.024 | 0.251 | – | – | – |
| Cc1nn(C)c(C)c1N[S+](=O)([O-])c1ccc(-c2cccc(CC3CCN(C)CC3)c2)cc1 [DDD90107] | – | 0.004 | 0.040 | – | – | – |
| Cc1nn(C)c(C)c1N(C)[S+](=O)([O-])c1ccc(CCCN2CCN(C)CC2)cc1 [DDD90115] | 6.1 | 0.26 | 2.21 | – | – | – |
| Cc1c(N(C)[S+](=O)([O-])c2ccc(CCCN3CCN(C)CC3)cc2)c(CC(C)C)nn1C [DDD90143] | 1.37 | 0.082 | 0.81 | – | – | – |
| Cc1c(N[S+](=O)([O-])c2ccc(CCCN3CCN(C)CC3)cc2)c(CC(C)C)nn1C [DDD90147] | – | 0.034 | 0.20 | – | – | – |
| Cc1nn(C)c(C)c1N(C)[S+](=O)([O-])c1ccc(CCCC2CCN(Cc3ccccc3)CC2)cc1 [DDD90152] | > 1 | 0.5 | >1 | – | – | – |
| Cc1nn(C)c(C)c1N(C)[S+](=O)([O-])c1ccc(CCCC2CCN(C(C)C)CC2)cc1 [DDD90153] | > 1 | 0.31 | >1 | – | – | – |
| Cc1nn(C)c(C)c1N(C)[S+](=O)([O-])c1ccc(CCCC2CCN(CC3CC3)CC2)cc1 [DDD90155] | > 1 | > 1 | 4.0 | – | – | – |
| Cc1nn(C)c(C)c1N(C)[S+](=O)([O-])c1ccc(CCCCCn2ccnc2)cc1 [DDD99735] | 2.9 | 0.83 | >1 | – | – | – |
| Cc1c(N[S+](=O)([O-])c2ccc(-c3cccc(CN4CCN(C)CC4)c3)cc2)c(CC(C)C)nn1C [DDD99736] | – | 0.068 | 0.41 | – | – | – |

| SMILES | IC50 (human NMT-1; HuNMT-1) [µM] | IC50 [1, 3] [µM] | ED50 (μM) T. brucei ([2]; T. brucei cell growth) [µM] | IC50 [1, 4] [µM] | ED50 (μM) T. brucei [2, 5] [µM] | IC50 (human NMT-1; [6]) [µM] |
| --- | --- | --- | --- | --- | --- | --- |
| CCN(C)Cc1cccc(-c2ccc([S+](=O)([O-])Nc3c(CC(C)C)nn(C)c3C)cc2)c1 [DDD99741] | 0.021 | 0.005 | 0.047 | – | – | – |
| Cc1c(N[S+](=O)([O-])c2c(Cl)cc(CCCC3CCN(C)CC3)cc2Cl)c(CC(C)C)nn1C [DDD99743] | – | 0.003 | 0.005 | – | – | – |
| Cc1nn(C)c(C)c1N(C)[S+](=O)([O-])c1ccc(CCCCN(C)C)cc1 [DDD99745] | > 10 | 2.1 | >1 | – | – | – |
| Cc1nn(C)c(C)c1N(C)[S+](=O)([O-])c1ccc(CCCCn2ccnc2)cc1 [DDD99746] | > 10 | 2 | >1 | – | – | – |
| CCN(CC)Cc1cccc(-c2cc(Cl)c([S+](=O)([O-])Nc3c(CC(C)C)nn(C)c3C)c(Cl)c2)c1 [DDD99747] | – | 0.008 | 0.067 | – | – | – |
| Cc1nn(C)c(C)c1N(C)[S+](=O)([O-])c1ccc(CCCN(C)C)cc1 [DDD99749] | > 1 | 0.45 | >1 | – | – | – |
| Cc1nn(C)c(C)c1N(C)[S+](=O)([O-])c1ccc(CCCn2ccnc2)cc1 [DDD99750] | > 1 | > 1 | >1 | – | – | – |
| CCN(CC)Cc1cccc(-c2ccc([S+](=O)([O-])Nc3c(CC(C)C)nn(C)c3C)c(Cl)c2)c1 [DDD99763] | – | 0.007 | 0.053 | – | – | – |
| Cc1cc(CN(C)C)cc(-c2ccc([S+](=O)([O-])Nc3c(CC(C)C)nn(C)c3C)cc2)c1 [DDD99817] | – | 0.014 | 0.047 | – | – | – |
| Cc1cc([S+](=O)([O-])Nc2c(CC(C)C)nn(C)c2C)ccc1-c1cccc(CN(C)C)c1 [DDD99819] | – | 0.008 | 0.043 | – | – | – |
| Cc1c(N[S+](=O)([O-])c2ccc(-c3cccc(CN4CCC(N(C)C)C4)c3)cc2)c(CC(C)C)nn1C (centres unmarked) [DDD99821] | 3.8 | 0.16 | 0.59 | – | – | – |
| Cc1c(N[S+](=O)([O-])c2ccc(-c3cccc(CN(C)C)c3)c(C(F)(F)F)c2)c(CC(C)C)nn1C [DDD99822] | – | 0.006 | 0.051 | – | – | – |
| Cc1c(N[S+](=O)([O-])c2ccc(-c3cccc(CN(C)C)c3)c(Cl)c2)c(CC(C)C)nn1C [DDD99823] | – | – | – | 0.006 | 0.041 | – |
| Cc1c(N[S+](=O)([O-])c2ccc(-c3cc(CN(C)C)ccc3F)cc2)c(CC(C)C)nn1C [DDD99827] | – | – | – | 0.007 | 0.019 | – |
| CCc1nn(C)c(CC)c1NS(=O)(=O)c1c(Cl)cc(Br)cc1Cl [DDD99835] | – | – | – | 0.38 | >1 | > 1 |
| Cc1c(N[S+](=O)([O-])c2ccc(-c3cccc(CC4CCNCC4)c3)cc2)c(CC(C)C)nn1C [DDD100094] | – | – | – | 0.003 | 0.008 | – |
| CCNCc1cccc(-c2ccc([S+](=O)([O-])Nc3c(CC(C)C)nn(C)c3C)cc2)c1 [DDD100095] | – | – | – | 0.005 | 0.055 | – |
| Cc1c(N[S+](=O)([O-])c2ccc(-c3cccc(CNCCc4ccccc4)c3)cc2)c(CC(C)C)nn1C [DDD100139] | – | – | – | 1.4 | >1 | 2.3 |
| Cc1c(N[S+](=O)([O-])c2ccc(CCCCC3CCNCC3)cc2)c(CC(C)C)nn1C [DDD100158] | – | – | – | 0.006 | 0.048 | – |
| Cc1c(N[S+](=O)([O-])c2ccc(CCCCC3CCN(C)CC3)cc2)c(CC(C)C)nn1C [DDD100162] | – | – | – | 0.01 | 0.093 | – |
| Cc1c(N[S+](=O)([O-])c2ccc(CCCOC3CCN(C)CC3)cc2)c(CC(C)C)nn1C [DDD100168] | – | – | – | 0.009 | 0.110 | – |
| COCCNCc1cccc(-c2ccc([S+](=O)([O-])Nc3c(CC(C)C)nn(C)c3C)cc2)c1 [DDD100797] | – | – | – | 0.023 | 0.492 | – |
| CCCNCc1cccc(-c2ccc([S+](=O)([O-])Nc3c(CC(C)C)nn(C)c3C)cc2)c1 [DDD100800] | – | – | – | 0.006 | 0.052 | – |
